The text below walks through data of patent US20260139063A1, “PRE-MEDICATION AND IMPROVED TREATMENT REGIMEN” (MonTa Biosciences ApS, priority 2022, published 2026).

The test system of series [1] is subjects presenting with advanced solid tumors. Put plainly: Occurrence of Cytokine Release Syndrome (CRS), CTCAE version 5.0 grading, on all dosing occasions. It is filed as in vivo, human. How it is done: FIG. 2: Table overview (FIG. 2A) of CRS occurrences in patients were assessed according to CTCAE grading, in patients treated with MBS8(1V270) on 4 occasions on day 1, 8, 15 and 22. Patient (pt) 1-3 were not pretreated with tocilizumab, whereas pt 4-7 were pretreated with tocilizumab prior to dosing with MBS8(1V270). All subjects received MBS8(1V270) at 0.1 mg/kg at each dosing occasion, and the clinical picture observed and rated according to the CTCAE grading shown in FIG. 2B. N/A=Not applicable. Table overview (FIG. 2B) of official CTCAE grading of patients with CRS symptoms as used for grading of CRS severeness for patients in FIG. 2A.CRS grading was done according to CTCAE Version 5.0.
MBS8(1V270) was administered to all subjects at 0.1 mg/kg by IV infusion for a duration of 2 hours for four dosing occasions. Infusions were given one week apart on Days 1, 8, 15, and 22. Patients pretreated with tocilizumab were administered tocilizumab (8 mg/kg) prior to MBS8(1V270) infusion on the first dosing occasion as a CRS preventive measure. […] Seven subjects presenting with advanced solid tumors were treated with MBS8(1V270) at 0.1 mg/kg once weekly on four dosing occasions as described in Example 1. […] Tocilizumab was administered as a one-hour intravenous infusion at 8 mg/kg just prior to MBS8(1V270) administration.
Occurrence of Cytokine Release Syndrome (CRS) was assessed on all dosing occasions. CRS was defined in accordance with Common Terminology Criteria for Adverse Events (CTCAE) version 5.0 as “a disorder characterized by fever, tachypnea, headache, tachycardia, hypotension, rash, and/or hypoxia caused by the release of cytokines”.

The test system of series [2] is plasma cytokines and chemokines. As to the kind of experiment: Clinical plasma biomarkers (cytokines and chemokines, MSD multiplex panels) after MBS8(1V270) with or without tocilizumab pre-medication. It is filed as in vivo, human. To be noted: patients. How it is done:
FIG. 1: Detection of cytokines in plasma of subjects treated with 0.1 mg/kg MBS8(1V270) without (left panels) or with (right panels) pre-medication with tocilizumab (8 mg/kg). The measurements were done using GLP/GCP compliant multiplex panels purchased from Meso Scale Discovery (MSD) (Cytokine Panel 1 Human kit, Cytokine Panel 2 Human kit and Chemokine Panel 1 Human kit). Data treatment was performed using GraphPad Prism 9 software. Selected biomarkers were IL-6 (FIG. 1A), TNF-α (FIG. 1B), IL-1RA (FIG. 1C), IFN-γ (FIG. 1D), IP-10 (FIG. 1E), IL-1β (FIG. 1F), IL-8 (FIG. 1G) and IL-10 (FIG. 1H).
MBS8(1V270) was administered to all subjects at 0.1 mg/kg by IV infusion for a duration of 2 hours for four dosing occasions. Infusions were given one week apart on Days 1, 8, 15, and 22. Patients pretreated with tocilizumab were administered tocilizumab (8 mg/kg) prior to MBS8(1V270) infusion on the first dosing occasion (day 1) as a CRS preventive measure. The biomarkers were measured using GLP/GCP compliant and validated multiplex panels purchased from MSD in a quantitative procedure to measure these cytokines and chemokines.
The following plasma biomarkers were identified in this clinical study: safety-related (IL-1β, IL-8, IL-6, TNF-α and IL-10) and pharmacodynamics biomarkers (IFN-γ, MCP-1, IP-10, IL-1RA and IL-12p70) (FIG. 1A-1H). Blood samples were taken at pre-dose (0), 2 h, 8 h, and 24 h post-end of infusion and processed to plasma and frozen for later biomarker analyses.

Setting [3] is: tocilizumab premedicated patients (pt 4-7): tocilizumab 8 mg/kg IV day 1 just prior to MBS8(1V270) 0.1 mg/kg IV, days 1, 8, 15, 22.
The mark [4] stands for this setting: tocilizumab 8 mg/kg prior to MBS8(1V270) 0.1 mg/kg IV.

“Also recorded” adds a separate entry of the source.

For “tocilizumab: humanized monoclonal antibody against the interleukin-6 receptor (IL-6R), CAS: 375823-41-9”, the “CRS observed (clinical signs, CTCAE v5.0)” value in series [1] (patient 4-7 pretreated with tocilizumab 8 mg/kg before MBS8(1V270) 0.1 mg/kg) is recorded as “No clinical signs of CRS; also recorded: no CRS observed at any dosing occasion”. In series [1] (setting [3]), the “CRS experienced, number of dosing occasions” value was 0 of the 14 and the “CRS experienced, percent of dosing occasions” value was determined as 0%. Besides, in series [2] (setting [4]), the “IFN-γ plasma level after tocilizumab premedication compared with without” value was “higher levels”, the “IL-6 plasma level after tocilizumab premedication compared with without” value is on record as “higher levels”, the “IP-10 plasma level after tocilizumab premedication compared with without” value is “higher levels” and the “interference of tocilizumab with the MoA of MBS8(1V270)” value is given as “does not interfere”. Further, the “effect of tocilizumab pre-medication on cytokine and chemokine levels expected to play a role for the anti-tumor activity of MBS8(1V270)” value in series [2] (tocilizumab 8 mg/kg prior to MBS8(1V270) 0.1 mg/kg IV infusion on day 1, plasma pre-dose, 2 h, 8 h, 24 h post-end of infusion) was “does not downregulate”.
